Source: ChEMBL document CHEMBL3046071, “Synthesis and microbial evaluation of novel N(1)-Arilidene-N(2)-t(3)-methyl-r(2),c(6)-diaryl-piperidin-4-one azine derivatives” (2006)
In brackets after ≈: the same amount, converted by molar mass.

Legend:
Assay type in all cases: functional
Candida [1] = test: Antifungal activity against Candida-51
Staphylococcus aureus = test: Antibacterial activity against Staphylococcus aureus
Enterococcus faecalis = test: Antibacterial activity against Enterococcus faecalis
Aspergillus flavus = test: Antifungal activity against Aspergillus flavus
Escherichia coli = test: Antibacterial activity against Escherichia coli
Candida [2] = test: Antifungal activity against Candida-6
Aspergillus niger = test: Antifungal activity against Aspergillus niger
Bacillus subtilis = test: Antibacterial activity against Bacillus subtilis
Pseudomonas aeruginosa = test: Antibacterial activity against Pseudomonas aeruginosa

Question: How did the MIC (Candida [1]) turn out when `CC1/C(=N/N=C2\CC(c3ccccc3)NC(c3ccccc3)C2C)CC(c2ccccc2)NC1c1ccccc1` (mixture of isomers) was run?
Answer: 100 µg/mL

Question: What about the MIC (Staphylococcus aureus) of the same compound?
Answer: 100 µg/mL

Question: And the MIC (Enterococcus faecalis)?
Answer: 100 µg/mL

Question: What about the MIC (Aspergillus flavus) of the same compound?
Answer: 100 µg/mL

Question: What about the MIC (Escherichia coli) of the same compound?
Answer: 50 µg/mL

Question: What about the MIC (Candida [2]) of the same compound?
Answer: 50 µg/mL

Question: And the MIC (Aspergillus niger)?
Answer: 100 µg/mL

Question: And the MIC (Bacillus subtilis)?
Answer: 100 µg/mL

Question: What about the MIC (Pseudomonas aeruginosa) of the same compound?
Answer: 100 µg/mL

Question: What does the source list for `CC1/C(=N/N=C/c2ccccc2Cl)CC(c2ccco2)NC1c1ccco1` (stereo not given)?
Answer: MIC (Candida [1]): 12.5 µg/mL (≈ 32.7 µM); MIC (Staphylococcus aureus): 25 µg/mL (≈ 65.5 µM); MIC (Enterococcus faecalis): 25 µg/mL (≈ 65.5 µM); MIC (Aspergillus flavus): 50 µg/mL (≈ 131 µM); MIC (Escherichia coli): 12.5 µg/mL (≈ 32.7 µM); MIC (Candida [2]): 12.5 µg/mL (≈ 32.7 µM); MIC (Aspergillus niger): 25 µg/mL (≈ 65.5 µM); MIC (Bacillus subtilis): 6.25 µg/mL (≈ 16.4 µM); MIC (Pseudomonas aeruginosa): 25 µg/mL (≈ 65.5 µM)

Question: For `COc1ccc(/C=N/N=C2\CC(c3ccccc3)NC(c3ccccc3)C2C)cc1` (mixture of isomers), which MIC (Candida [1]) is on record?
Answer: 12.5 µg/mL

Question: And the MIC (Staphylococcus aureus)?
Answer: 25 µg/mL

Question: What about the MIC (Enterococcus faecalis) of the same compound?
Answer: 25 µg/mL

Question: What about the MIC (Aspergillus flavus) of the same compound?
Answer: 100 µg/mL

Question: What about the MIC (Escherichia coli) of the same compound?
Answer: 12.5 µg/mL

Question: And the MIC (Candida [2])?
Answer: 12.5 µg/mL

Question: What about the MIC (Aspergillus niger) of the same compound?
Answer: 50 µg/mL

Question: What about the MIC (Bacillus subtilis) of the same compound?
Answer: 6.25 µg/mL

Question: What about the MIC (Pseudomonas aeruginosa) of the same compound?
Answer: 50 µg/mL

Question: For `CN[C@@H]1[C@H](O[C@H]2[C@H](O[C@H]3[C@H](O)[C@@H](O)[C@H](N=C(N)N)[C@@H](O)[C@@H]3N=C(N)N)O[C@@H](C)[C@]2(O)C=O)O[C@@H](CO)[C@H](O)[C@H]1O` [STREPTOMYCIN], which MIC (Staphylococcus aureus) is on record?
Answer: 25 µg/mL (≈ 43 µM)

Question: And the MIC (Enterococcus faecalis)?
Answer: 50 µg/mL (≈ 86 µM)

Question: What about the MIC (Escherichia coli) of the same compound?
Answer: 12.5 µg/mL (≈ 21.5 µM)

Question: And the MIC (Bacillus subtilis)?
Answer: 12.5 µg/mL (≈ 21.5 µM)

Question: And the MIC (Pseudomonas aeruginosa)?
Answer: 25 µg/mL (≈ 43 µM)

Question: For `CC1/C(=N/N=C/c2ccccc2O)CC(c2ccccc2)NC1c1ccccc1` (stereo not given), which MIC (Candida [1]) is on record?
Answer: 25 µg/mL (≈ 65.2 µM)

Question: What about the MIC (Staphylococcus aureus) of the same compound?
Answer: 50 µg/mL (≈ 130 µM)

Question: What about the MIC (Enterococcus faecalis) of the same compound?
Answer: 50 µg/mL (≈ 130 µM)

Question: What about the MIC (Aspergillus flavus) of the same compound?
Answer: 100 µg/mL (≈ 261 µM)

Question: What about the MIC (Escherichia coli) of the same compound?
Answer: 100 µg/mL (≈ 261 µM)

Question: What about the MIC (Candida [2]) of the same compound?
Answer: 50 µg/mL (≈ 130 µM)

Question: What about the MIC (Aspergillus niger) of the same compound?
Answer: 100 µg/mL (≈ 261 µM)

Question: What about the MIC (Bacillus subtilis) of the same compound?
Answer: 50 µg/mL (≈ 130 µM)

Question: And the MIC (Pseudomonas aeruginosa)?
Answer: 50 µg/mL (≈ 130 µM)

Question: How did the MIC (Candida [1]) turn out when `C[C@@H]1[C@H](O)[C@@H](C)/C=C/C=C/C=C/C=C/C=C/C=C/C=C/[C@H](O[C@@H]2O[C@H](C)[C@@H](O)[C@H](N)[C@@H]2O)C[C@@H]2O[C@](O)(C[C@@H](O)C[C@@H](O)[C@H](O)CC[C@@H](O)C[C@@H](O)CC(=O)O[C@H]1C)C[C@H](O)[C@H]2C(=O)O` [AMPHOTERICIN B] was run?
Answer: 25 µg/mL (≈ 27.1 µM)

Question: What about the MIC (Aspergillus flavus) of the same compound?
Answer: 50 µg/mL (≈ 54.1 µM)

Question: What about the MIC (Candida [2]) of the same compound?
Answer: 25 µg/mL (≈ 27.1 µM)

Question: What about the MIC (Aspergillus niger) of the same compound?
Answer: 50 µg/mL (≈ 54.1 µM)

Question: Which MIC (Candida [1]) does the source give for `CC1/C(=N/N=C/c2ccccc2[N+](=O)[O-])CC(c2ccccc2)NC1c1ccccc1` (stereo not given) here?
Answer: 50 µg/mL (≈ 121 µM)

Question: What about the MIC (Staphylococcus aureus) of the same compound?
Answer: 50 µg/mL (≈ 121 µM)

Question: And the MIC (Enterococcus faecalis)?
Answer: 100 µg/mL (≈ 242 µM)

Question: What about the MIC (Aspergillus flavus) of the same compound?
Answer: 100 µg/mL (≈ 242 µM)

Question: What about the MIC (Escherichia coli) of the same compound?
Answer: 100 µg/mL (≈ 242 µM)

Question: And the MIC (Candida [2])?
Answer: 100 µg/mL (≈ 242 µM)

Question: And the MIC (Aspergillus niger)?
Answer: 50 µg/mL (≈ 121 µM)

Question: What about the MIC (Bacillus subtilis) of the same compound?
Answer: 50 µg/mL (≈ 121 µM)

Question: And the MIC (Pseudomonas aeruginosa)?
Answer: 50 µg/mL (≈ 121 µM)

Question: `CC1/C(=N/N)CC(c2ccccc2)NC1c1ccccc1` (stereo not given) was tested. Which MIC (Staphylococcus aureus) did it give?
Answer: 100 µg/mL (≈ 358 µM)

Question: And the MIC (Aspergillus flavus)?
Answer: 100 µg/mL (≈ 358 µM)

Question: What about the MIC (Candida [2]) of the same compound?
Answer: 100 µg/mL (≈ 358 µM)

Question: What about the MIC (Bacillus subtilis) of the same compound?
Answer: 100 µg/mL (≈ 358 µM)

Question: Which MIC (Staphylococcus aureus) does the source give for `CC1/C(=N/N)CC(c2ccco2)NC1c1ccco1` (stereo not given) here?
Answer: 100 µg/mL (≈ 386 µM)

Question: What about the MIC (Aspergillus flavus) of the same compound?
Answer: 100 µg/mL (≈ 386 µM)

Question: And the MIC (Candida [2])?
Answer: 100 µg/mL (≈ 386 µM)

Question: And the MIC (Bacillus subtilis)?
Answer: 100 µg/mL (≈ 386 µM)

Question: For `C/C(=N\N=C1/CC(c2ccccc2)NC(c2ccccc2)C1C)c1ccccc1` (mixture of isomers), which MIC (Candida [1]) is on record?
Answer: 50 µg/mL

Question: And the MIC (Staphylococcus aureus)?
Answer: 50 µg/mL

Question: What about the MIC (Enterococcus faecalis) of the same compound?
Answer: 25 µg/mL

Question: What about the MIC (Aspergillus flavus) of the same compound?
Answer: 100 µg/mL

Question: What about the MIC (Escherichia coli) of the same compound?
Answer: 12.5 µg/mL

Question: And the MIC (Candida [2])?
Answer: 25 µg/mL

Question: What about the MIC (Aspergillus niger) of the same compound?
Answer: 50 µg/mL

Question: What about the MIC (Bacillus subtilis) of the same compound?
Answer: 12.5 µg/mL

Question: What about the MIC (Pseudomonas aeruginosa) of the same compound?
Answer: 25 µg/mL

Question: Which MIC (Candida [1]) does the source give for `CC1/C(=N/N=C/c2ccco2)CC(c2ccccc2)NC1c1ccccc1` (stereo not given) here?
Answer: 12.5 µg/mL (≈ 35 µM)

Question: And the MIC (Staphylococcus aureus)?
Answer: 12.5 µg/mL (≈ 35 µM)

Question: What about the MIC (Enterococcus faecalis) of the same compound?
Answer: 50 µg/mL (≈ 140 µM)

Question: What about the MIC (Aspergillus flavus) of the same compound?
Answer: 50 µg/mL (≈ 140 µM)

Question: What about the MIC (Escherichia coli) of the same compound?
Answer: 25 µg/mL (≈ 69.9 µM)

Question: What about the MIC (Candida [2]) of the same compound?
Answer: 12.5 µg/mL (≈ 35 µM)

Question: And the MIC (Aspergillus niger)?
Answer: 12.5 µg/mL (≈ 35 µM)

Question: What about the MIC (Bacillus subtilis) of the same compound?
Answer: 12.5 µg/mL (≈ 35 µM)

Question: And the MIC (Pseudomonas aeruginosa)?
Answer: 50 µg/mL (≈ 140 µM)
